Measurements as given in patent publication US12427210B2, “Compounds comprising a fibroblast activation protein ligand and use thereof” (priority 2019, dated 2025).
Numbered stars: 1 amine (or outer) side, 2 acyl side, 3 side chain; on linkers, the order of the positions; unused ones are H or OH. Bridge positions count the residues as written; N and C are the ends. Peptide text beside a SMILES is read from it. * marks the point of attachment. X1 = O=C(O)CN1CCN(CC(=O)O)CCN(CC(=O)N2CCN(Cc3cc(C[*:1])cc(C[*:2])c3)CC2)CCN(CC(=O)O)CC1; Hexanoyl = CCCCCC(=O)*

Assays:
DPP8 = DPP8 (Homo sapiens, UniProt Q6V1X1); assay: biochemical; details: read-out: Percentage inhibition (%)
DPP8, sequence (Q6V1X1 whole entry, species assumed): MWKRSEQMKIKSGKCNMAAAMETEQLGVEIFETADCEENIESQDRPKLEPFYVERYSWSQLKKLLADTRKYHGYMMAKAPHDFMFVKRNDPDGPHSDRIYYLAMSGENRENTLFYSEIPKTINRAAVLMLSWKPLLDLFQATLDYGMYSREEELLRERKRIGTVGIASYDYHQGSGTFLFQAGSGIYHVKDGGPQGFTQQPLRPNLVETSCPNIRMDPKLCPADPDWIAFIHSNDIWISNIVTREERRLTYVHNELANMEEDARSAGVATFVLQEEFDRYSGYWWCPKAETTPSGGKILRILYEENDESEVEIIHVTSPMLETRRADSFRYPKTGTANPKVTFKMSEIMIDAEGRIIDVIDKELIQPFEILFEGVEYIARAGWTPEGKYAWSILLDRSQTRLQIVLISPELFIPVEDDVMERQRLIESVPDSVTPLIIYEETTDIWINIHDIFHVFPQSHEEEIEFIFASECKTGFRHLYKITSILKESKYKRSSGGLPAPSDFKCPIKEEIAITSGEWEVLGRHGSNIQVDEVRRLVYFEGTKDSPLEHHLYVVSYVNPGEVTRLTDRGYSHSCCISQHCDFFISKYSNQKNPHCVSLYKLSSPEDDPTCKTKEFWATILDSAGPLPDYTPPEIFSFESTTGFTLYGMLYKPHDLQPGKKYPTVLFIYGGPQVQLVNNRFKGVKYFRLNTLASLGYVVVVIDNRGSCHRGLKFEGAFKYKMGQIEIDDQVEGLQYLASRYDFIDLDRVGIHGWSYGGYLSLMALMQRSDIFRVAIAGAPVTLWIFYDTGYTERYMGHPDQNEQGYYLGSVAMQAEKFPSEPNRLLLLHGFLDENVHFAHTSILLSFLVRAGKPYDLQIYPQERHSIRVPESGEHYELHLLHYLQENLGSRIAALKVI

Lck kinase (h) = Lck kinase (h) (Homo sapiens, UniProt P06239); assay: biochemical; details: read-out: % Inhibition of Specific Binding
Lck kinase (h), sequence (P06239 whole entry): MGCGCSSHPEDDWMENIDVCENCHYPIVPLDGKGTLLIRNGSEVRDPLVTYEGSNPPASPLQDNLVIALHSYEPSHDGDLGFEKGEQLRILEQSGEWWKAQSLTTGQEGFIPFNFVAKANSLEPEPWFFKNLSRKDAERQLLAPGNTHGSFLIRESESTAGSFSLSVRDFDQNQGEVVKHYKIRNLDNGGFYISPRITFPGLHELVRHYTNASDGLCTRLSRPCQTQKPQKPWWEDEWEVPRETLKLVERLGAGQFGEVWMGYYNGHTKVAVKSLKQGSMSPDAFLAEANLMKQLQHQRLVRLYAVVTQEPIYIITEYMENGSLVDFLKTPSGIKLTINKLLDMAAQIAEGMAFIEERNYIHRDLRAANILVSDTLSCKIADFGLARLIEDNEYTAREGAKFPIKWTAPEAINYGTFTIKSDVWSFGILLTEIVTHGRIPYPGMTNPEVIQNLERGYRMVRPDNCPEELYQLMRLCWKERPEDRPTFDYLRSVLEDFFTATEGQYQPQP

5-HT1A (h) = 5-HT1A (h) (Homo sapiens, UniProt P08908); assay: biochemical; details: read-out: % Inhibition of Specific Binding
CB1 (h) = CB1 (h) (Homo sapiens, UniProt P21554); assay: biochemical; details: read-out: % Inhibition of Specific Binding
CB1 (h), sequence (P21554 whole entry): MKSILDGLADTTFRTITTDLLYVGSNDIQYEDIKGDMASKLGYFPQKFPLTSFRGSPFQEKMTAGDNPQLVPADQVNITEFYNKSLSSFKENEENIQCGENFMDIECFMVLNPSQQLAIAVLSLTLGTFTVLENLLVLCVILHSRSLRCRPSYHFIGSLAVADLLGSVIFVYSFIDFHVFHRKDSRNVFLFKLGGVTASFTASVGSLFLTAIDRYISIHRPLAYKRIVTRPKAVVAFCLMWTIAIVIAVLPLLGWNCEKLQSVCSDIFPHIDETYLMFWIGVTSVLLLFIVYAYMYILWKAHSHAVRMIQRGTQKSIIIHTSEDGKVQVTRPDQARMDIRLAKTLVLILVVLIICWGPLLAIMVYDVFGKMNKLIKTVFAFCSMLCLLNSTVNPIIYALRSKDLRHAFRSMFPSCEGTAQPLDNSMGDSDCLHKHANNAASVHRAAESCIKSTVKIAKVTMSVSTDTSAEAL

[1] = molecular target: T1, Ubiquitin carboxyl-terminal hydrolase 5 (Homo sapiens, UniProt P45974); assay: biochemical; details: read-out: Percentage inhibition (%)
T1 sequence (P45974 1-858): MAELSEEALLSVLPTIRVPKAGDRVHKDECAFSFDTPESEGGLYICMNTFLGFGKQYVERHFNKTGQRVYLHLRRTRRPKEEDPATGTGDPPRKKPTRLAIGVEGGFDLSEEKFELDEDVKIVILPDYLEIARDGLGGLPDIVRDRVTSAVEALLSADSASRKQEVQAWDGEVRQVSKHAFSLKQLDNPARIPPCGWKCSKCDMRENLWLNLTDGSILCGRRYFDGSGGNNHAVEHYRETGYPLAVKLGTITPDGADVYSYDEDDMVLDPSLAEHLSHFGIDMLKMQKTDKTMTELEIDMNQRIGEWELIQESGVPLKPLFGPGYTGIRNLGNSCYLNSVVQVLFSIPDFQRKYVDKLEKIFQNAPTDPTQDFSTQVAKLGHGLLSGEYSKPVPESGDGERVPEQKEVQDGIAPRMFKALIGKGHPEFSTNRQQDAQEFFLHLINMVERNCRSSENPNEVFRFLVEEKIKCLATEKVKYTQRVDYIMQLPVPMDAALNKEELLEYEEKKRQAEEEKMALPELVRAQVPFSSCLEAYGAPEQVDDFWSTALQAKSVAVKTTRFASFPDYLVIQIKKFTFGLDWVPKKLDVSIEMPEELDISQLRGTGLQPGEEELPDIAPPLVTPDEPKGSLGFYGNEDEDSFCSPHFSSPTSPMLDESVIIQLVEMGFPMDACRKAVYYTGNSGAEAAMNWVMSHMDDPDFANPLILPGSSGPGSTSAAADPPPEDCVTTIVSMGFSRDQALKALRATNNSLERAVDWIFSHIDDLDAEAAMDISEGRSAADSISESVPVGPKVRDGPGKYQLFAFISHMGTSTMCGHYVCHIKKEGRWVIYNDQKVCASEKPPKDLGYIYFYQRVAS

5-HT3 (h) = 5-HT3 (h) (Homo sapiens, UniProt P46098); assay: biochemical; details: read-out: % Inhibition of Specific Binding
5-HT1B (h) = 5-HT1B (h) (Homo sapiens, UniProt P28222); assay: biochemical; details: read-out: % Inhibition of Specific Binding
beta 2 (h) = beta 2 (h) (Homo sapiens, UniProt P07550); assay: biochemical; details: read-out: % Inhibition of Specific Binding
beta 2 (h), sequence (P07550 whole entry): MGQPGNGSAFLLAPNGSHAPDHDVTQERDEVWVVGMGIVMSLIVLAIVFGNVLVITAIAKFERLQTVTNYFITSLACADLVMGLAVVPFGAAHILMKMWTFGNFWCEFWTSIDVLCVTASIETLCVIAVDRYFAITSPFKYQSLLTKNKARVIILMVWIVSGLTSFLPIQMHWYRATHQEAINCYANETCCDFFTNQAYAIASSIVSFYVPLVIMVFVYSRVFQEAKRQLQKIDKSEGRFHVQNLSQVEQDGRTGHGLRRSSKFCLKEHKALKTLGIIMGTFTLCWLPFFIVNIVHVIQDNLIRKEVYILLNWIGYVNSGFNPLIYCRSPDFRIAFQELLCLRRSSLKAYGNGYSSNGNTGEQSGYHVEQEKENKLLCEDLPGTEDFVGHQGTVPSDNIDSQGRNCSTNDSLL

Caspase-6 = molecular target: T2, Caspase-6 (Homo sapiens, UniProt P55212); assay: biochemical; details: read-out: Percentage inhibition (%)
T2 sequence (P55212 24-179 limits assumed): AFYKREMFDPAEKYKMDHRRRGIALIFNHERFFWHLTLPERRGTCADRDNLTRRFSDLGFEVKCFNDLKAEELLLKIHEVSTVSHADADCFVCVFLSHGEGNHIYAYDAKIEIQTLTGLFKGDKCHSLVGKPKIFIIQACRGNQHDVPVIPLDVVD
T2 sequence (P55212 194-293 limits assumed): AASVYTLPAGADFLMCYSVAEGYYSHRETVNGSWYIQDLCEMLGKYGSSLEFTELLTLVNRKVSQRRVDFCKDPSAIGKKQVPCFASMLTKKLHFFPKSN

Matrix metalloprotease1 = molecular target: T3, Matrix metalloprotease1 (Homo sapiens, UniProt P03956); assay: biochemical; details: read-out: Percentage inhibition (%)
T3 sequence (P03956 100-469): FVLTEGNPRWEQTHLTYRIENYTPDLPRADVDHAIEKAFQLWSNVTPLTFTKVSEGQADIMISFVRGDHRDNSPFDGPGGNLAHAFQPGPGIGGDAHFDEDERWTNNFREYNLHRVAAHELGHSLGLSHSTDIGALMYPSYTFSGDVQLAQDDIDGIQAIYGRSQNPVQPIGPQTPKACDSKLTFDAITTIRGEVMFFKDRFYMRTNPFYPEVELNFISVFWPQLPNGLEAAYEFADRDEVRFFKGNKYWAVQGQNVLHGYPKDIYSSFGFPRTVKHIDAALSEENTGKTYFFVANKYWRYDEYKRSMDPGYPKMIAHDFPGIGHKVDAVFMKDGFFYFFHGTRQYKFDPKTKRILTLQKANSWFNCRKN

MAO-A = MAO-A (Rattus norvegicus, UniProt P21396); assay: biochemical; details: read-out: % Inhibition of Specific Binding
MAO-A, sequence (P21396 whole entry): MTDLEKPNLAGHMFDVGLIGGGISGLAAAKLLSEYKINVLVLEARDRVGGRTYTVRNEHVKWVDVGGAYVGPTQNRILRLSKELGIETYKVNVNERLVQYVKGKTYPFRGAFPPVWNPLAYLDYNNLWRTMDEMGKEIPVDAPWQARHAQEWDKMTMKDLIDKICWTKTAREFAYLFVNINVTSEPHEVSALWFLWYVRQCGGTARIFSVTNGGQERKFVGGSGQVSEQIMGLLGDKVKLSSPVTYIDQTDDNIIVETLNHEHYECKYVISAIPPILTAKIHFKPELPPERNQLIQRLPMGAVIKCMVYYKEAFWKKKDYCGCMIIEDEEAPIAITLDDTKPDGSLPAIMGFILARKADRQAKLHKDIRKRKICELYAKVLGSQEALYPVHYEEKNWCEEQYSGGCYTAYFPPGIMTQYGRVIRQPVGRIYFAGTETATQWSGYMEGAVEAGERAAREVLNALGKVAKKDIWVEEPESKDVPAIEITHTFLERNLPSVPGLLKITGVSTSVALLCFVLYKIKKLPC

beta 1 (h) = beta 1 (h) (Homo sapiens, UniProt P08588); assay: biochemical; details: read-out: % Inhibition of Specific Binding
beta 1 (h), sequence (P08588 whole entry): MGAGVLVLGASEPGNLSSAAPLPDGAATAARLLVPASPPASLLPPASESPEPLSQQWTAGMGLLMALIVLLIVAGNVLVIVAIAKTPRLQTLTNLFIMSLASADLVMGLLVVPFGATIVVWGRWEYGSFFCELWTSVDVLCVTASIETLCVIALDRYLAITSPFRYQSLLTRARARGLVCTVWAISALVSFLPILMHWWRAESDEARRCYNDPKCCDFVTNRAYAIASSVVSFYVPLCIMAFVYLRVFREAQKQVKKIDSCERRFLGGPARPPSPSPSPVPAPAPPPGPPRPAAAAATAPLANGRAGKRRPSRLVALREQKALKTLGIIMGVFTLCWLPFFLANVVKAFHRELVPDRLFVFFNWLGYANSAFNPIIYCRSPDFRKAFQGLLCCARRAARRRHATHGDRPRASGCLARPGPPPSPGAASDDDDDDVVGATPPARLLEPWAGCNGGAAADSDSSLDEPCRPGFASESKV

DPP7 = DPP7 (Homo sapiens, UniProt Q9UHL4); assay: biochemical; details: read-out: Percentage inhibition (%)
Na+ channel (site 2) = assay: SafetyScreen44 Na+ channel (site 2) (antagonist radioligand); assay type: binding; details: 10 μM
delta (DOP) (h) = delta (DOP) (h) (Homo sapiens, UniProt P41143); assay: biochemical; details: read-out: % Inhibition of Specific Binding
Acetylcholinesterase (h) = Acetylcholinesterase (h) (Homo sapiens, UniProt P22303); assay: biochemical; details: read-out: % Inhibition of Specific Binding
Acetylcholinesterase (h), sequence (P22303 32-614): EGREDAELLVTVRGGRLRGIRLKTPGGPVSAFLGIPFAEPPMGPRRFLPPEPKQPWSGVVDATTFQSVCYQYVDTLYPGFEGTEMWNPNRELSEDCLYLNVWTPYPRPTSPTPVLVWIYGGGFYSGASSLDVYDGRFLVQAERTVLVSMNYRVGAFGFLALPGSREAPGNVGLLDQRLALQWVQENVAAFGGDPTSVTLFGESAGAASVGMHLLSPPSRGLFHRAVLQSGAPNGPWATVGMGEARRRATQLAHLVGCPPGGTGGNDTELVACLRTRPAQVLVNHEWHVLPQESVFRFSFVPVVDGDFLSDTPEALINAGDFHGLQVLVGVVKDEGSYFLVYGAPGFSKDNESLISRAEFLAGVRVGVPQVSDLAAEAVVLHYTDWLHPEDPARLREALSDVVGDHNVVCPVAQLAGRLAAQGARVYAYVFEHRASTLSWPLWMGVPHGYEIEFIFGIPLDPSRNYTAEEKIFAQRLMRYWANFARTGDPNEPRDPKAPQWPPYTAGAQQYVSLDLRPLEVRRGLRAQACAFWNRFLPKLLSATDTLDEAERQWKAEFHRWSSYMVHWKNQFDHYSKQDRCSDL

BZD (central) = details: 10 μM
Beta secretase = Beta secretase (Homo sapiens, UniProt P56817); assay: biochemical; details: read-out: Percentage inhibition (%)
Beta secretase, sequence (P56817 46-501): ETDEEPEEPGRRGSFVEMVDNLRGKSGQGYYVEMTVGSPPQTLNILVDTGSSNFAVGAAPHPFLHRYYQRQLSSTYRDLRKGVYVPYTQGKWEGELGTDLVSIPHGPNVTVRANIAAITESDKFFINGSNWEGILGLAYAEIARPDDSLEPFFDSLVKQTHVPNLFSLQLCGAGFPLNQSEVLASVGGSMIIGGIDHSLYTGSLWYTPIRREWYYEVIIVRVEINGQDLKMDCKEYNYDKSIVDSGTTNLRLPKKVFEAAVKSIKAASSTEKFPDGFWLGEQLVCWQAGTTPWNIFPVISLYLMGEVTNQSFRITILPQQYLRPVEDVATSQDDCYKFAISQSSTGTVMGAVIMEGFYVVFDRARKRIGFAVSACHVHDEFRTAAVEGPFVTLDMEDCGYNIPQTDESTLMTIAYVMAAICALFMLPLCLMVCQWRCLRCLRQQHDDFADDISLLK

dopamine transporter (h) = dopamine transporter (h) (Homo sapiens, UniProt Q01959); assay: biochemical; details: read-out: % Inhibition of Specific Binding
dopamine transporter (h), sequence (Q01959 whole entry): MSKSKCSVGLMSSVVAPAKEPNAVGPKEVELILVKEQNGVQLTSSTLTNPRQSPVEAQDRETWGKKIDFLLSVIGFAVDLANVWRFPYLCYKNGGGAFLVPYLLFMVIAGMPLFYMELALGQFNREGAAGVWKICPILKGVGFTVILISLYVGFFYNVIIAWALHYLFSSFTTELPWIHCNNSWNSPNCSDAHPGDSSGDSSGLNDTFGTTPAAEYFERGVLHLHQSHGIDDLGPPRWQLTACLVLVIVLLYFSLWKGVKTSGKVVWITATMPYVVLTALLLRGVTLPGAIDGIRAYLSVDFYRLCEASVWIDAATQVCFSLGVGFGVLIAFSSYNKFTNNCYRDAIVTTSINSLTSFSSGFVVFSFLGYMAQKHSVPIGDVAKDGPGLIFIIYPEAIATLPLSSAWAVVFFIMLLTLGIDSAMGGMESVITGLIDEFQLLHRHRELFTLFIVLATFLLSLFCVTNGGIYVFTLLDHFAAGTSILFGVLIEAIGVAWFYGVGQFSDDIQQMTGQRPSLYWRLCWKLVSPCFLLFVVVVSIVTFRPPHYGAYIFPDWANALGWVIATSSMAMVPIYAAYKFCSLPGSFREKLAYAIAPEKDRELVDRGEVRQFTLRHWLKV

SMILES | inhibition at 1 µM (DPP8) [%] | inhibition at 10 µM (DPP8) [%] | inhibition at 10 µM (Lck kinase (h)) [%] | inhibition at 10 µM (5-HT1A (h)) [%] | inhibition at 10 µM (CB1 (h)) [%] | inhibition at 1 µM [1] [%] | inhibition at 10 µM [1] [%] | inhibition at 10 µM (5-HT3 (h)) [%] | inhibition at 10 µM (5-HT1B (h)) [%] | inhibition at 10 µM (beta 2 (h)) [%] | inhibition at 1 µM (Caspase-6) [%] | inhibition at 10 µM (Caspase-6) [%] | inhibition at 1 µM (Matrix metalloprotease1) [%] | inhibition at 10 µM (Matrix metalloprotease1) [%] | inhibition at 10 µM (MAO-A) [%] | inhibition at 10 µM (beta 1 (h)) [%] | inhibition at 1 µM (DPP7) [%] | inhibition at 10 µM (DPP7) [%] | % Inhibition of Specific Binding (Na+ channel (site 2)) [%] | inhibition at 10 µM (delta (DOP) (h)) [%] | further results
CCCCCC(=O)N[C@H]1CSCc2cc(cc(CN3CCN(C(=O)CN4CCN(CC(=O)O)CCN(CC(=O)O)CCN(CC(=O)O)CC4)CC3)c2)CSC[C@@H](C(=O)N[C@@H](CC(=O)O)C(N)=O)NC(=O)[C@H](Cc2ccccc2)NC(=O)[C@H](CCC(N)=O)NC(=O)[C@H]([C@@H](C)O)NC(=O)[C@@H]2CCCN2C(=O)[C@@H]2CCCN2C1=O [Compound 3BP-3407, Hex-[Cys(tMeBn(DOTA-PP))-Pro-Pro-Thr-Gln-Phe-Cys]-Asp-NH2] (Hexanoyl-CPPTQFCD-NH2; linker 1-7 via X1) | 1 | 5 | 10 | -3 | 5 | 3 | 46 | 2 | -11 | 4 | 1 | -1 | -1 | 2 | -5 | 4 | 2 | -3 | −7 | 0 | inhibition at 10 µM (Acetylcholinesterase (h)): -6%; % Inhibition of Specific Binding (BZD (central)): −9%; inhibition at 1 µM (Beta secretase): -8%; inhibition at 10 µM (Beta secretase): -5%; inhibition at 10 µM (dopamine transporter (h)): 12%
CCCCCC(=O)N[C@H]1CSCc2cc(CSCCNC(=O)CN3CCN(CC(=O)O)CCN(CC(=O)O)CCN(CC(=O)O)CC3)cc(c2)CSC[C@@H](C(=O)O)NC(=O)[C@H](Cc2ccccc2)NC(=O)[C@H](CCC(N)=O)NC(=O)[C@H]([C@@H](C)O)NC(=O)[C@@H]2CCCN2C(=O)[C@@H]2CCCN2C1=O [Compound 3BP-3554, Hex-[Cys(tMeBn(DOTA-AET))-Pro-Pro-Thr-Gln-Phe-Cys]-OH] | 1 | 11 | -4 | -5 | -7 | -4 | -2 | 4 | 8 | 8 | 6 | -3 | 1 | -7 | -25 | -13 | -1 | -7 | 14 | 1 | inhibition at 10 µM (Acetylcholinesterase (h)): 1%; % Inhibition of Specific Binding (BZD (central)): 5%; inhibition at 1 µM (Beta secretase): 1%; inhibition at 10 µM (Beta secretase): 7%; inhibition at 10 µM (dopamine transporter (h)): 7%
